Laboratory results as given in patent US12358983B2, “Combination of anti CD19 antibody with a BCL-2 inhibitor and uses thereof” (Incyte Corporation, priority 2016, dated 2025).

Test system: MEC-1 cells
Assay: Cytotoxicity (ADCC assay with NK effector cells) of MOR00208 and venetoclax alone and in combination in MEC-1 cells
Type: cell-based
Excerpt: Cell lines tested: MEC-1 cells (DSMZ# ACC497). Culture conditions of cell lines used are according to supplier's information. Cell Medium: lscove's Modified Dulbecco's Medium (IMDM), Invitrogen, Cat No.: 31980; RPMI1640, Invitrogen, Cat No.: 31870; GlutaMAX, Invitrogen, CAT No.: 35050; FCS: Sigma CAT No.: F7524 LOT No.: 111M3396. NKs: RPMI1640, with GlutaMAX, Invitrogen, Cat No.: 31870, 10% FCS; Biocoll: Biochrome AG CAT No.: L6115 LOT No.: 0034D; MACS NK cell isolation kit: Miltenyi Biotec CAT No.: 130-092-657 LOT No.: 5150402327; venetoclax: Selleck Chem. CAT No.: S8048 LOT No.: S804803; FCS: Sigma CAT No.: F7524 LOT No.: 111M3396; and RefmAb33 (anti-RSV) with same Fc region as MOR00208.
The cytotoxic potential of MOR00208 and venetoclax alone and in combination were tested in the MEC-1 cell line (CLL). Target cell killing is measured using the following parameters: venetoclax mono treatment at concentrations of 3 μM, 6.5 μM, and 10 μM; MOR00208 mono treatment at concentrations of 0.01 pM, 0.1 pM, 1 pM, 10 pM, 100 pM and 10 nM, and the combination treatment of the listed venetoclax and MOR00208 concentrations. The following are used as controls: RefnnAb33, NK cells alone, MEC-1 cells alone or DMSO. In the venetoclax mono groups as well as in the MOR00208+venetoclax combination groups, target cells were pretreated with venetoclax or with DMSO control for 24 hours followed by removal of the dead cells prior to the ADCC assay. A dead cell removal kit was used to remove cells killed by the cytotoxic effect of venetoclax. The dead cell removal kit was implemented to mimick the removal of dead cells that also occurs in vivo and to prevent false negative interference of the dead cells with the subsequent ADCC assay. For the ADCC assay, target cells are counted and stained using CFSE at a final concentration of 1 μg/mL. For the control group, i.e. DMSO treated target cells, the effector: target (E:T) cell ratio was adjusted to 2:1, i.e. 1×10E6/nnL effector cells (NK cells) and 5×10E5/mL target cells (MEC-1 cells). […] The ADCC assays were performed as follows: using 96 well plates, 100 μL of MEC-1 target cell suspension was added per well, followed by 100 μL NK effector cell suspension per well. Mixed cell suspensions were centrifuged and resuspended in 100 μL antibody containing medium or the according control solution. The antibodies were diluted in a range of 10 nM-0.01 pM (corresponds to 1.5 μg/mL-1.5 pg/mL) in medium. The ADCC assays were incubated for 2 hours in a CO2-incubator at 37° C. After 10 minutes incubation on ice, 50 μL DAPI solution was added to each well (final concentration 1 μg/mL) and incubated for additional 10 minutes on ice. The ADCC measurements were performed on a BD FACSVerse instrument. Dead target cells were identified as DAPI positive cells.
Combination Index (CI) calculations are completed in order to determine synergy of the combination of the exemplified anti-CD19 antibody and venetoclax as compared to MOR00208 and venetoclax alone. Such calculations are described in Ting-Chao Chou, Theoretical Basis, Experimental Design, and Computerized Simulation of Synergism and Antagonism in Drug Combination Studies, Pharmacol Rev 58:621-681 (2006), which is incorporated by reference in its entirety and Chou TC, Talalay P, Quantitative analysis of dose-effect relationships: the combined effects of multiple drugs or enzyme inhibitors. Adv Enzyme Regul 22: 27-55 (1984), which is incorporated by reference in its entirety. The methods of Chou-Talalay are carried out using the CI-isobol method.
The median-effect equation models the effect of an inhibitor (such as a drug) as Fa/Fu=(D/D50)^m, where D is the dose, Fa and Fu is the fraction of the system affected and unaffected by the dose D (Fa+Fu=1); D50 is the dose producing the median effect (e.g. IC50, ED50, LD50). The constant m determines the shape of the dose-effect curve.

For “MOR00208: anti-CD19 antibody; heavy chain SEQ ID NO: 14, light chain SEQ ID NO: 15”, the “Actual MOR00208 Effect” value (Exp 1, MOR00208 1.50E+00 μg/mL) was 69.4 % dead cells, the “Actual MOR00208 Effect” value (Exp 1, MOR00208 1.50E−02 μg/mL) was 66.8 % dead cells and the “Actual MOR00208 Effect” value (Exp 1, MOR00208 1.50E−03 μg/mL) was 43.4 % dead cells. The “Actual MOR00208 Effect” value (Exp 1, MOR00208 1.50E−04 μg/mL) was 22.8 % dead cells, the “Actual MOR00208 Effect” value (Exp 1, MOR00208 1.50E−05 μg/mL) was 17.4 % dead cells and the “Actual MOR00208 Effect” value (Exp 1, MOR00208 1.50E−06 μg/mL) was 15.3 % dead cells. The “Theoretical MOR00208 Dose” value (Exp 1, same effect as MOR00208 1.50E+00 μg/mL + venetoclax 3.0 μM) was “* 1.00E+03^ μg/mL”, the “Theoretical MOR00208 Dose” value (Exp 1, same effect as MOR00208 1.50E+00 μg/mL + venetoclax 6.5 μM) was “* 1.00E+03^ μg/mL” and the “Theoretical MOR00208 Dose” value (Exp 1, same effect as MOR00208 1.50E+00 μg/mL + venetoclax 10.0 μM) was “* 1.00E+03^ μg/mL”. The “Theoretical MOR00208 Dose” value (Exp 1, same effect as MOR00208 1.50E−02 μg/mL + venetoclax 3.0 μM) was 0.0304 µg/mL, the “Theoretical MOR00208 Dose” value (Exp 1, same effect as MOR00208 1.50E−02 μg/mL + venetoclax 6.5 μM) was “* 1.00E+03^ μg/mL” and the “Theoretical MOR00208 Dose” value (Exp 1, same effect as MOR00208 1.50E−02 μg/mL + venetoclax 10.0 μM) was “* 1.00E+03^ μg/mL”. The “Theoretical MOR00208 Dose” value (Exp 1, same effect as MOR00208 1.50E−03 μg/mL + venetoclax 3.0 μM) was 0.00125 µg/mL, the “Theoretical MOR00208 Dose” value (Exp 1, same effect as MOR00208 1.50E−03 μg/mL + venetoclax 6.5 μM) was 0.00404 µg/mL and the “Theoretical MOR00208 Dose” value (Exp 1, same effect as MOR00208 1.50E−03 μg/mL + venetoclax 10.0 μM) was 0.00914 µg/mL. For the same substance, the “Theoretical MOR00208 Dose” value (Exp 1, same effect as MOR00208 1.50E−04 μg/mL + venetoclax 3.0 μM) was 0.000132 µg/mL, the “Theoretical MOR00208 Dose” value (Exp 1, same effect as MOR00208 1.50E−04 μg/mL + venetoclax 6.5 μM) was 0.00041 µg/mL and the “Theoretical MOR00208 Dose” value (Exp 1, same effect as MOR00208 1.50E−04 μg/mL + venetoclax 10.0 μM) was 0.000543 µg/mL. For the same substance, the “Theoretical MOR00208 Dose” value (Exp 1, same effect as MOR00208 1.50E−05 μg/mL + venetoclax 3.0 μM) was 1.41e-05 µg/mL, the “Theoretical MOR00208 Dose” value (Exp 1, same effect as MOR00208 1.50E−05 μg/mL + venetoclax 6.5 μM) was 8.47e-05 µg/mL and the “Theoretical MOR00208 Dose” value (Exp 1, same effect as MOR00208 1.50E−05 μg/mL + venetoclax 10.0 μM) was 0.000163 µg/mL. For the same substance, the “Theoretical MOR00208 Dose” value (Exp 1, same effect as MOR00208 1.50E−06 μg/mL + venetoclax 10.0 μM) was 2.33e-05 µg/mL, the “Actual MOR00208 Effect” value (Exp 2, MOR00208 1.50E+00 μg/mL) was 74.8 % dead cells and the “Actual MOR00208 Effect” value (Exp 2, MOR00208 1.50E−02 μg/mL) was 69.6 % dead cells. For the same substance, the “Actual MOR00208 Effect” value (Exp 2, MOR00208 1.50E−03 μg/mL) was 55.9 % dead cells, the “Actual MOR00208 Effect” value (Exp 2, MOR00208 1.50E−04 μg/mL) was 40.3 % dead cells and the “Actual MOR00208 Effect” value (Exp 2, MOR00208 1.50E−05 μg/mL) was 34.5 % dead cells. The “Actual MOR00208 Effect” value (Exp 2, MOR00208 1.50E−06 μg/mL) was 29.7 % dead cells, the “Theoretical MOR00208 Dose” value (Exp 2, same effect as MOR00208 1.50E+00 μg/mL + venetoclax 3.0 μM) was “* 1.00E+03^ μg/mL” and the “Theoretical MOR00208 Dose” value (Exp 2, same effect as MOR00208 1.50E+00 μg/mL + venetoclax 6.5 μM) was “* 1.00E+03^ μg/mL”. For the same substance, the “Theoretical MOR00208 Dose” value (Exp 2, same effect as MOR00208 1.50E+00 μg/mL + venetoclax 10.0 μM) was “* 1.00E+03^ μg/mL”, the “Theoretical MOR00208 Dose” value (Exp 2, same effect as MOR00208 1.50E−02 μg/mL + venetoclax 3.0 μM) was “* 1.00E+03^ μg/mL” and the “Theoretical MOR00208 Dose” value (Exp 2, same effect as MOR00208 1.50E−02 μg/mL + venetoclax 6.5 μM) was “* 1.00E+03^ μg/mL”. For the same substance, the “Theoretical MOR00208 Dose” value (Exp 2, same effect as MOR00208 1.50E−02 μg/mL + venetoclax 10.0 μM) was “* 1.00E+03^ μg/mL”, the “Theoretical MOR00208 Dose” value (Exp 2, same effect as MOR00208 1.50E−03 μg/mL + venetoclax 3.0 μM) was 0.00188 µg/mL and the “Theoretical MOR00208 Dose” value (Exp 2, same effect as MOR00208 1.50E−03 μg/mL + venetoclax 6.5 μM) was 0.01 µg/mL.
